Measurements reported in patent US20060107336A1, “Nonbacterial prostatitis model animal” (priority 2002, published 2006).
Read-outs that look alike come from different tables or passages of the source.

Tests used:
[1] = tested on: prostate tissue of male Wistar rats
Protocol: 18 male Wistar rats at the age of 12-weeks-old were divided into 3 groups (test group, comparative group, and negative control group; 6 rats per group). The right inguinal region of each test group rat was incised under ether anesthesia to expose the prostate. Beneath the prostatic capsule of the right lateral lobe was injected 100 μl of sterilized 0.4 N hydrochloric acid physiological saline (a solution prepared by diluting hydrochloric acid with physiological saline to a concentration of 0.4 N, the same applies hereinbelow). The right inguinal region of each comparative group rat was incised in the same manner under ether anesthesia, and 100 μl of 0.4 N hydrochloric acid physiological saline was injected into the right vas deferens thus exposed. The peritoneum and the skin of the rats were sutured with a suture thread. To prevent operational infection, a kanamycin-containing aqueous solution was sprayed onto the site of the incision, and a physiological saline solution containing cefazolin sodium was injected into the femoral muscle in an amount of 7 mg/kg body weight. The control group refers to untreated rats (normal rats) subjected to neither an incisional operation nor hydrochloric acid injection.
The prostate, bladder and urethra were sampled from the rats of respective groups prepared in 1-1) above (test group, comparative group, and control group) to prepare tissue specimens thereof for the evaluation of change in tissue.
Specifically, the rats of the test group and the comparative group were euthanized by exsanguination under ether anesthesia 6 hours (2 rats per group), 4 days (2 rats per group), or 8 days (2 rats per group) after hydrochloric acid injection. The prostate, bladder and urethral tissues were taken out as a lump, and the tissues were fixed with 4% paraformaldehyde. The rats of the control group were subjected to the same treatment.
The frozen blocks were sliced in a cryostat to a thickness of 5 to 6 μm to prepare slide preparations of the tissue sections. The slide preparations were stained with hematoxylin-eosin (H.E), and the appearance of the tissues was observed under a microscope.
In the figures, sample code N refers to the tissue samples obtained from the control group (nonhydrochloric acid-injected rats), and sample code P refers to the tissue samples obtained from the test group (rats injected with hydrochloric acid beneath the prostatic capsules).
In the figures, sample code Y refers to tissue samples obtained from the comparative group (rats injected with hydrochloric acid into the vas deferens).

[2] = tested on: bladder function of male Wistar rats; settings: 8th day of rearing
[3] = 100 μl 0.4 N beneath prostatic capsule
[4] = 100 μl 0.4 N into the vas deferens, 6 hours after injection
[5] = 0.1, 0.2 and 0.4 N beneath prostatic capsule
[6] = 100 μl 0.2 N beneath prostatic capsule

## Cl [hydrochloric acid]
[1]; [3]
  urethral and bladder tissue damage extending from the prostate: no evidence of tissue damage
[1]; 100 μl 0.4 N beneath prostatic capsule, 6 hours after injection
  localized bleeding and nerve cell tigrolysis in the stroma of the prostate dorsolateral lobes: slight (+) to moderate (++)
[1]; 100 μl 0.4 N beneath prostatic capsule, 4 days after injection
  hyperplasia and fibrosis of the fibroblast, and inflammatory cellular infiltration in the stroma of the prostate dorsolateral lobes: moderate (++) to severe (+++)
[1]; 100 μl 0.4 N beneath prostatic capsule, 8 days after injection
  prostate tissue damage: still observable
[1]; 100 μl 0.4 N injected beneath prostatic capsule of right lateral lobe, 6 hours after injection
  loss of glandular epithelial cells, peeling of epithelium, degeneration/necrosis, and presence of erythrocytes at the glandular cavities of the prostate dorsolateral lobes: slight (+) to moderate (++) to severe (+++)
[1]; 100 μl 0.4 N injected into the vas deferens (comparative group), 6 hours after injection
  epithalaxia in the glandular cavities of the prostate dorsolateral lobes: severe (+++)
[1]; [4]
  bleeding in the stromata of the glandular tissues of the ampulla ductus deferentis: severe (+++)
  epithalaxia, degeneration/necrosis and bleeding in the glandular cavities of the ampulla ductus deferentis: severe (+++)
  localized bleeding in the stroma of the prostate dorsolateral lobes: severe (+++)
[1]; 100 μl 0.4 N into the vas deferens, 4 days after injection
  prostate tissue damage: did not exhibit such prostate tissue damage
[1]; 100 μl 0.4 N into the vas deferens, at least 4 days after injection
  damage at the glandular tissues of the ampulla ductus deferentis: did not exhibit such damage
[1]; injected into the vas deferens of rats (animal model (5))
  development of prostatitis, pathohistological point of view: only to a very slight extent
[2]; [5]
  correlation between concentration and change in the weight of the prostate: no evidence of correlation
  ratio of bladder weight to body weight compared with the control group: comparable or significantly higher
  ratio of prostate ventral lobe weight to body weight compared with the control group: comparable or significantly higher
  weight of the bladder in relation to concentration injected: increased in accordance with the concentration
[2]; 100 μl 0.1 N beneath prostatic capsule
  volume of residual urine compared with the control group: no residual urine
[2]; [6]
  urination interval compared with the control group: significantly shorter
  volume of residual urine compared with the control group: significantly higher
  volume of urine per urination compared with the control group: smaller
[2]; [3]
  urination interval compared with the control group: significantly shorter
  volume of urine per urination compared with the control group: smaller
